Measured values taken from patent US12622917B2, “High-activity Wnt pathway inhibitor compound” (ADLAI NORTYE BIOPHARMA CO., LTD., priority 2020, dated 2026).

Key:
[1] = test system: Colo205-LUC-TCF/LEF M1 reporter cell line (Wnt pathway); experiment: Colo205-LUC-TCF/LEF M1 reporter gene (luciferase) inhibition; type: cell-based; conditions: 4 hours incubation, luciferase readout
Source text: Colo205 cell line (Cell Bank of Chinese Academy of Sciences, Cat #TCHu102) was purchased from the Cell Bank of Chinese Academy of Sciences. After expansion and subculture, in the exponential growth phase of the cells, transfection with lipo3000 liposome transfection with TCF/LEF transcription factors Driven luciferase reporter plasmid (Promega). […] The plasmid carries a resistance gene for resistance screening. Transfection was carried out in 10 cm culture dishes using conventional complete medium without resistance. After 2 days, the medium with resistance was replaced, and the culture was continued. After that, the resistant medium was replaced every 2 days, and the suspended cells were discarded. The original medium was centrifuged to remove cells and debris and retained as an adaptive medium. When the cells covered the culture dish, the cells were digested, counted, and passaged in a 96-well plate, so that the average number of cells contained in each well was 1.5/well, and the adaptive medium was used for passage. The rest of the cells were frozen. After subculture, culture for 4 hours to allow the cells to adhere to the wall, and then observe the number of cells in each well under a microscope. Wells with only 1 cell per well were labeled as monoclonal wells. Afterwards, normal culture was performed, and the culture medium was replaced every 2 days, and observed. There are holes where the monoclonal cells continue to grow in the early stage, and they are labeled twice, and can be replaced with normal resistant medium. When a monoclonal well was overgrown with a 96-well plate, it is digested and passaged to a 24-well culture plate. After the 24-well plate is overgrown, it is passaged to a 96-well plate and a 6-well plate. The cells in a 96-well plate are at least 6 wells, of which 3 wells were added with known Wnt inhibitors, and the other 3 wells were not treated. After 24 hours, the cells in the 96-well plate were added with a fluorescence detection reagent to detect the fluorescence intensity. Cell lines with fluorescent expression when not treated and decreased fluorescent light after inhibition were selected and further cultured. The Colo205-LUC-TCF/LEF-M1 cell line is one of the cell lines screened above. Its growth curve, cell shape, and cell growth state are similar to those of the original Colo205 cells, and the ratio of the fluorescent signals of the inhibitor-treated and untreated cells is the largest among all cell lines, and the ratio can reach 4-5 times when inhibited at 4 hours, which was completely suitable for the screening of Wnt inhibitors in the later stage.
The Colo205-LUC-TCF/LEF M1 cell line is a reporter tool cell stably transfected with the pGL4.49-LUC2-TCF/LEF vector. The β-catenin Wnt pathway is continuously activated. After adding the inhibitor, the Wnt pathway is inhibited. The expression of firefly luciferase regulated by the[…] cis-element decreased, and after adding the detection substrate, the detected light signal decreased accordingly, so as to detect the inhibitory effect of the compound.
To a 96-well cell culture plate, add 100 uL of the compound with a maximum concentration of 20 uM to each well, and make a 3-fold serial dilution of the compound concentration. Then 10,000 colo205 cells stably transfected with the reporter gene and 100 uL medium were inoculated into each well, and corresponding positive and negative control wells were made at the same time. Put the cells in a 5% CO2 incubator and incubate at 37° C. for 4 hours. After 4 hours, remove the culture medium, add 100 uL of reagent (Promega) containing the corresponding firefly luciferase substrate to each well, and measure the activity of luciferase reporter gene. Luminescence intensity was read with SpectraMax in full wavelength mode. […]

Colo205 = experiment: Proliferation inhibition, Wnt mutant cell line Colo205; type: cell-based; conditions: Homo sapiens, COLO 205; Colo205, Wnt pathway-dependent, 96 hours; read-out: Antiproliferative IC50 Colo205
Source text: (§1) The cell lines used in the experiment are Colo205 and DU4475 cell lines whose Wnt pathway is continuously activated and whose proliferation is Wnt pathway-dependent; while the BELA and RKO cell lines, whose Wnt pathway is not activated under normal circumstances and the proliferation is independent of Wnt pathway, as control cell lines. It is Judged that the inhibitory effect of the compound of the present invention on Wnt-dependent proliferation is not caused by other non-specific toxicity.
(§2) Treat the Colo205, Du4475, HELA and RKO cell lines cultured in their respective mediums in the logarithmic growth phase, collect the cells and prepare a uniform cell suspension of known concentration, and then add it to the 96-well cell culture plate Cell suspension, so that each well contains 1000 cells. Put it into a 5% CO2 incubator and incubate at 37° C. for 20-24 h. On the second day, the fully dissolved, 3-fold serially diluted compound was added to each cell culture well, so that the final maximum concentration in the cell culture well was 20 uM, and the culture was continued for 96 hours. In this test, Promega's cell viability detection test is used for detection. The more the cells proliferate, the stronger the final signal intensity will be. The detection instrument is SpectraMax, full wavelength mode. The wells only added with DMSO were used as positive control wells, and the wells that were not inoculated with cells were used as negative control wells. […] The IC50 value of cell proliferation inhibition was used to evaluate the inhibitory effect of the compound on the Wnt pathway and the toxic effect on normal cells (Table 2).

RKO = experiment: Proliferation inhibition, non-Wnt mutant control cell line RKO; type: cell-based; conditions: Homo sapiens, Wnt-independent control cell line, 96 hours, read-out: Antiproliferative IC50 RKO
Source text: as §1, §2

HepG2 = experiment: Proliferation inhibition, HepG2 cell line; type: cell-based; conditions: Homo sapiens; HepG2 cells, 96 hours culture, cell viability detection; read-out: Antiproliferative IC50 HepG2
Source text: (§3) The cell lines used in the test are NCI-H929 and HepG2 cell lines whose Wnt pathway is continuously activated and whose proliferation is Wnt pathway-dependent; the inhibitory effect of the compound of the present invention on Wnt-dependent proliferation is judged.
(§4) Treat the NCI-H929 and HepG2 cell lines cultured in their respective mediums in the logarithmic growth phase, collect the cells and prepare a uniform cell suspension of known concentration, and then add the cell suspension to the 96-well cell culture plate solution so that each well contains 4000 cells. Put it into a […] incubator and incubate at 37° C. for 20-24 h. On the second day, the fully dissolved, 3-fold serially diluted compound was added to each cell culture well, so that the final maximum concentration in the cell culture well was 20 uM, and the culture was continued for 96 hours. In this test, Promega's cell viability detection test is used for detection. The more the cells proliferate, the stronger the final signal intensity will be. The detection instrument is SpectraMax, full wavelength mode. The wells only added with DMSO were used as positive control wells, and the wells that were not inoculated with cells were used as negative control wells. […] The IC50 value of cell proliferation inhibition was used to evaluate the inhibitory effect of the compound on the Wnt pathway and the toxic effect on normal cells (Table 3).

NCI-H929 = experiment: Proliferation inhibition, NCI-H929 cell line; type: cell-based, human; conditions: Homo sapiens; NCI-H929 cells, 96 hours culture, cell viability detection; read-out: Antiproliferative IC50 NCI-H929
Source text: as §3, §4

| Compound | IC50 [1] | IC50 (Colo205) | IC50 (RKO) | IC50 (HepG2) | IC50 (NCI-H929) |
| --- | --- | --- | --- | --- | --- |
| [2H]C([2H])([2H])N1c2nc(NCc3ccc(Oc4ccc(C(F)(F)F)nc4)nc3)nc3c2N(CCC3)C(=O)C1CC(F)(F)F (centres unmarked) [195 (W323)] | 0.022 µM | 0.0021 µM | > 10 µM | 0.004 µM | 0.019 µM |
| [2H]C([2H])([2H])N1c2nc(NCc3ccc(Oc4cc(C(F)(F)F)nn4CC)nc3)nc3c2N(CCC3)C(=O)[C@@H]1COC [201 (W360)] | 0.006 µM | 0.0036 µM | > 10 µM | 0.014 µM | 0.051 µM |
| CCn1nc(C(F)(F)F)cc1Oc1ccc(CNc2nc3c4c(n2)N(C)[C@@H](COC)C(=O)N4CCC3)cn1 [202 (W361)] | 0.004 µM | 0.005 µM | > 10 µM | 0.01 µM | 0.05 µM |
| CN1c2nc(NCc3ccc(Oc4cc(C(F)(F)F)nn4C4CC4)nc3)nc3c2N(CCC3)C(=O)[C@]1(C)CO [203 (W372)] | 0.021 µM | 0.0093 µM | > 10 µM | 0.0082 µM | 0.095 µM |
| CCn1nc(C(F)(F)F)cc1Oc1ccc(CNc2nc3c4c(n2)N(C)[C@@](C)(CO)C(=O)N4CCC3)cn1 [204 (W374)] | 0.025 µM | 0.0096 µM | > 10 µM | 0.012 µM | 0.06 µM |
| CN1c2nc(NCc3ccc(Oc4cc(C(F)(F)F)nn4C4CC4)nc3)nc3c2N(CCC3)C(=O)[C@@H]1CO [205 (W379)] | 0.037 µM | 0.0148 µM | > 10 µM | 0.0056 µM | 0.067 µM |
| C[C@@H](O)[C@H]1C(=O)N2CCCc3nc(NCc4ccc(Oc5cc(C(F)(F)F)nn5C5CC5)nc4)nc(c32)N1C [206 (W388)] | 0.024 µM | 0.01 µM | > 10 µM | 0.049 µM | 0.09 µM |
| COCC[C@H]1C(=O)N2CCCc3nc(NCc4ccc(Oc5ccc(C(F)(F)F)nc5)nc4)nc(c32)N1C [214 (W392)] |  | 0.034 µM | > 10 µM | 0.0096 µM | 0.082 µM |
| COc1nc(C(F)(F)F)ccc1Oc1ccc(CNc2nc3c4c(n2)N(C)[C@@](C)(CO)C(=O)N4CCC3)cn1 [232 (W418)] | 0.0055 µM | 0.004 µM | > 10 µM | < 0.0005 µM |  |
| C[C@H]1C(=O)N2CCCc3nc(NCc4cnc(Oc5ccc(C(F)(F)F)nc5)c(C#N)c4)nc(c32)N1C [238 (W426)] | 0.0273 µM | 0.0246 µM | > 10 µM | 0.0258 µM |  |
